# Laboratory results from US10479789B2, “Pyrido[1,2-A]pyrimidone analog, crystal form thereof, intermediate thereof and preparation method therefor” (Chia Tai Tianqing Pharmaceutical Group Co., Ltd., priority 2015, dated 2019).
# What was measured:
# [1] = target: T1, mTOR (Homo sapiens, UniProt P42345); experiment: mTOR kinase activity, 32P-ATP P81 filter-binding method; format: biochemical; conditions: 3 μM 4EBP1 and 10 μM ATP; read-out: IC50 of mTOR enzyme activity
# T1 construct: N-terminal GST tag (amino acid 1360-2549, molecular weight=163.9 kDa); GST (N); host or cells: insect cells
# Method: The activity of the test compounds of the present invention on mTOR kinase was tested by the test method below.
# Reaction Buffer: 20 mM Hepes (pH 7.5), 10 mM MgCl2, 2 mM MnCl2, 1 mM EGTA, 0.02% Brij35, 0.02 mg/mL BSA, 0.1 mM Na3VO4, 2 mM DTT, 2% DMSO.
# Enzyme for reaction: humanized recombinant mTOR fragment with a N-terminal GST tag (amino acid 1360-2549, molecular weight=163.9 kDa), expressed in insect cells.
# Reaction Substrate: humanized recombinant full-length 4EBP1 with a N-terminal His tag (molecular weight=13.6 kDa), expressed in bacteria;
# Reaction conditions: 3 μM 4EBP1 and 10 μM ATP.
# 1. The reaction substrate and other reaction factors were added to the freshly prepared reaction buffer.
# 2. The kinase was added to the substrate reaction and gently mixed.
# 3. The compound dissolved in 100% DMSO was transferred into the kinase reaction solution using Acoustic technology (Echo 550; nanoliter rang) and then incubated at room temperature for 20 min.
# 4. An appropriate concentration of ^32P-ATP was add to the reaction system.
# 5. It was incubated at room temperature for 2 hours.
# 6. Kinase activity was detected by the P81 filter-binding method.
# [2] = target: PI3Kβ (Homo sapiens, UniProt P42338); experiment: ADP-Glo Assay II, PI3Kβ; format: biochemical; conditions: read-out: IC50 for inhibition of PI3Kβ activity
# Method: (§1) 1) The compound was diluted using Echo from Labcyte company, 50 nL of the compound was transferred into an assay plate, and centrifuged at a speed of 1000 rpm for 10 sec.
# (§2) 2) A kinase/lipid substrate mixed solution and a kinase reaction buffer/lipid substrate mixed solution were prepared; the kinase/lipid substrate mixed solution was added into columns 3-24 of the assay plate, 3 μL per well; the kinase reaction buffer/lipid substrate mixed solution was added into columns 1-2 of the assay plat, 3 μL per well; and the plate was centrifuged at a speed of 1000 rpm for 10 sec.
# (§3) 3) An ATP solution was prepared, and added into the assay plate, 2 μL per well; the plate was centrifuged at a speed of 1000 rpm for 10 sec, shaken and mixed in 2nd gear mode on a plate shaker for 1 min, further centrifuged at a speed of 1000 rpm for 10 sec, and incubated for 120 min at 23° C. […]
# (§4) 5) A kinase detection reagent was prepared, added into the assay plate, 10 μL per well; the plate was centrifuged at a speed of 1000 rpm for 10 sec, shaken and mixed in 2nd gear mode on a plate shaker for 1 min, further centrifuged at a speed of 1000 rpm for 10 sec, incubated for 30 min at 23° C.; and then read on the multi-marker detector Envision.
# (§5) IC50 results were analyzed by XLfit5 (Formula 205) of IDBS company.
# [3] = target: PI3Kδ (Homo sapiens, UniProt O00329); experiment: ADP-Glo Assay II, PI3Kδ; format: biochemical; conditions: read-out: IC50 for inhibition of PI3Kδ activity
# Method: as §1, §2, §3, §4, §5
# [4] = target: PI3Kγ (Homo sapiens, UniProt P48736); experiment: ADP-Glo Assay II, PI3Kγ; format: biochemical; conditions: read-out: IC50 for inhibition of PI3Kγ activity
# Method: as §1, §2, §3, §4
# [5] = test system: MCF-7 cells; experiment: In vitro test of cell activity, insulin-stimulated MCF-7 cells, ELISA-One; format: cell-based; conditions: Homo sapiens, MCF7, 2 hours compound, insulin 30 minutes
# Method: 1) MCF-7 cells were inoculated at the density of 2.5×10^4 cells/well into 96-well plates (the culture medium used should be a complete culture medium containing 10% FBS).
# 2) On the next day, the medium in each well was drawn out.
# 3) Insulin was dissolved in a culture medium without serum, added to the cultured cells and incubated for 30 minutes, wherein the final concentration of insulin was 10 mg/mL.
# 4) A lysis solution was prepared according to the following method during the waiting period for the reaction: • a) Enhancer solution was removed from the refrigerator to melt in advance. • b) Enhancer solution was diluted 10-fold with the 5× Lysis Buffer to give a concentrated lysis solution. • c) The concentrated lysis solution was diluted 5-fold with double distilled water to give the lysis solution.
# 5) The medium in each well was completely removed and each well was quickly rinsed with PBS once.
# 6) 150 μL of the freshly prepared lysis solution was added to each well and shaken at room temperature for 10 min.
# 7) After confirming that all cells were detached, the lysis solution together with cell debris was transferred into a 1.5 mL tube. […]
# 9) The number of strips of ELISA-one micro-well plate that is required was calculated. […]
# 15) The corresponding ELISA-One filter group was assembled and used to read the fluorescence signal intensity.
# Chain of PI3Kβ (P42338 whole entry): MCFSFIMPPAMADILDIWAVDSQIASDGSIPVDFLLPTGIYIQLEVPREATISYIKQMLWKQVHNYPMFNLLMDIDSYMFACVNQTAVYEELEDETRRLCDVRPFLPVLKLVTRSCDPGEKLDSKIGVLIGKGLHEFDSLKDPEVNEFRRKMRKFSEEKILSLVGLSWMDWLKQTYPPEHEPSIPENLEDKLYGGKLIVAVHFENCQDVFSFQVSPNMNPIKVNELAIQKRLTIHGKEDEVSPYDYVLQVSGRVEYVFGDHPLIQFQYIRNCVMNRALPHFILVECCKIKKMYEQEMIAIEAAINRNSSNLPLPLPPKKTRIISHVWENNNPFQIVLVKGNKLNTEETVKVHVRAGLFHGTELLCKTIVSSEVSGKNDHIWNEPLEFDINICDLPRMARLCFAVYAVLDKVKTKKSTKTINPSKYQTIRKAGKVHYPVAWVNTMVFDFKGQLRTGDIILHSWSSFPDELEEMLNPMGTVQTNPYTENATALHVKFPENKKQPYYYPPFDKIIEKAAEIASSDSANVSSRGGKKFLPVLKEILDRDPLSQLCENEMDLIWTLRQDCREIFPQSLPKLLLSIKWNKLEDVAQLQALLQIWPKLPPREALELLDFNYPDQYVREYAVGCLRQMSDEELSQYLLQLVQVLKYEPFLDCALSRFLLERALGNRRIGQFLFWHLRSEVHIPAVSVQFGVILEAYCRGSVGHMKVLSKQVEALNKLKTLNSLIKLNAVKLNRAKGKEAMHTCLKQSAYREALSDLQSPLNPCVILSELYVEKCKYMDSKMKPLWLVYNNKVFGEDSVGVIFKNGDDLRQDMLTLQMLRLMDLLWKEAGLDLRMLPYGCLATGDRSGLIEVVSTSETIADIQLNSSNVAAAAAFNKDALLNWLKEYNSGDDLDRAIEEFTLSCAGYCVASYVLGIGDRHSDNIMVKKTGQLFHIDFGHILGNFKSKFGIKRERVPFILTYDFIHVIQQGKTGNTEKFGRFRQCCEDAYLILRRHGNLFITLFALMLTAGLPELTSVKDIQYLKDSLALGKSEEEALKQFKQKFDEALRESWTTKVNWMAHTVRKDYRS
# Chain of PI3Kβ (P27986 whole entry partner): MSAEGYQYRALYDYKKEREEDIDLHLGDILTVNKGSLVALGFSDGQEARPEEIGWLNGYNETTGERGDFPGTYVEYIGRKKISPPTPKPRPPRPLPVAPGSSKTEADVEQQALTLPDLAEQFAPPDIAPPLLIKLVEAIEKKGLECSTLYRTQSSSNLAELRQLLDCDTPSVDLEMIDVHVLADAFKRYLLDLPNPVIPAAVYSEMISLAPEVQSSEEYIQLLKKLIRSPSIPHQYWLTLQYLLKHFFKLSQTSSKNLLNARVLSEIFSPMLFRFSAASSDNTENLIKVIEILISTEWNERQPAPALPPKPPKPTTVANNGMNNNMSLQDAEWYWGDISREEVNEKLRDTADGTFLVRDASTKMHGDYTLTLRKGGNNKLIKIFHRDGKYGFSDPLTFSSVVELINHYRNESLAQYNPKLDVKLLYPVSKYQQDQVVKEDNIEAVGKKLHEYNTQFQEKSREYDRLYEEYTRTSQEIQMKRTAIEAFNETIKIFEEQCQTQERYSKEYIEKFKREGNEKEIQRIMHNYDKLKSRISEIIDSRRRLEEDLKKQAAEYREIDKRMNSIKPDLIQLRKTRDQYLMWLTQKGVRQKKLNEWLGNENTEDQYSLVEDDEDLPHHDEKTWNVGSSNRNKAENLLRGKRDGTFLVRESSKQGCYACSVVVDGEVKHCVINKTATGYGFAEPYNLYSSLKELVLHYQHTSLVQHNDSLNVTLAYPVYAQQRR
# Chain of PI3Kγ (P48736 whole entry): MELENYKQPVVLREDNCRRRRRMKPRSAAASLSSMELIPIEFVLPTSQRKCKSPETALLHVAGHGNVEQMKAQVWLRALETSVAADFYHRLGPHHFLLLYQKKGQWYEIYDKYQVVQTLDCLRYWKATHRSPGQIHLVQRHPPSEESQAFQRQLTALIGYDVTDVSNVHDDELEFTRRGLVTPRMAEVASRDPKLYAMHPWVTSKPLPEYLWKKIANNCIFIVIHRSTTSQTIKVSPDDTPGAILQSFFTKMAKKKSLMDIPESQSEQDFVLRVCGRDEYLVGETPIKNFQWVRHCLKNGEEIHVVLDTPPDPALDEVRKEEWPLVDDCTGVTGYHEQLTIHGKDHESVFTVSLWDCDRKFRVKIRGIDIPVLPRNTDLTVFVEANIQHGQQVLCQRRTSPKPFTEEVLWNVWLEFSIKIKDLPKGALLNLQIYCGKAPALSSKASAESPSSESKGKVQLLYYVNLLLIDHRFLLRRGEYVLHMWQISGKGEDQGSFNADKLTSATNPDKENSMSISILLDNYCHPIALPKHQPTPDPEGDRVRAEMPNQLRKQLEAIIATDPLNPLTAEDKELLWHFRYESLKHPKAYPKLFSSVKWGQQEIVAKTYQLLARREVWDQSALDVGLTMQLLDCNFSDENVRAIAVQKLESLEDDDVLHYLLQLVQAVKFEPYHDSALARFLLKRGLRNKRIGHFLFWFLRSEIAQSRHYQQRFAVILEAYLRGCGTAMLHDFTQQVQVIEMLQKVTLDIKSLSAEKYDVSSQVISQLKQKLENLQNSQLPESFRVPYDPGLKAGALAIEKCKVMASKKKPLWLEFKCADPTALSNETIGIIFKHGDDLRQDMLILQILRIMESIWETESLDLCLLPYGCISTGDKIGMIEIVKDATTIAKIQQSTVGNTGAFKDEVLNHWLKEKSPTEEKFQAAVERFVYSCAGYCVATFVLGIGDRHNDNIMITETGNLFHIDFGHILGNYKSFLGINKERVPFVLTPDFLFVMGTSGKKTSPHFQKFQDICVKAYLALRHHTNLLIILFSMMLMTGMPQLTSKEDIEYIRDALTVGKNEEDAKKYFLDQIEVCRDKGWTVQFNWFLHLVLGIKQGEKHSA
# Chain of PI3Kδ (O00329 whole entry): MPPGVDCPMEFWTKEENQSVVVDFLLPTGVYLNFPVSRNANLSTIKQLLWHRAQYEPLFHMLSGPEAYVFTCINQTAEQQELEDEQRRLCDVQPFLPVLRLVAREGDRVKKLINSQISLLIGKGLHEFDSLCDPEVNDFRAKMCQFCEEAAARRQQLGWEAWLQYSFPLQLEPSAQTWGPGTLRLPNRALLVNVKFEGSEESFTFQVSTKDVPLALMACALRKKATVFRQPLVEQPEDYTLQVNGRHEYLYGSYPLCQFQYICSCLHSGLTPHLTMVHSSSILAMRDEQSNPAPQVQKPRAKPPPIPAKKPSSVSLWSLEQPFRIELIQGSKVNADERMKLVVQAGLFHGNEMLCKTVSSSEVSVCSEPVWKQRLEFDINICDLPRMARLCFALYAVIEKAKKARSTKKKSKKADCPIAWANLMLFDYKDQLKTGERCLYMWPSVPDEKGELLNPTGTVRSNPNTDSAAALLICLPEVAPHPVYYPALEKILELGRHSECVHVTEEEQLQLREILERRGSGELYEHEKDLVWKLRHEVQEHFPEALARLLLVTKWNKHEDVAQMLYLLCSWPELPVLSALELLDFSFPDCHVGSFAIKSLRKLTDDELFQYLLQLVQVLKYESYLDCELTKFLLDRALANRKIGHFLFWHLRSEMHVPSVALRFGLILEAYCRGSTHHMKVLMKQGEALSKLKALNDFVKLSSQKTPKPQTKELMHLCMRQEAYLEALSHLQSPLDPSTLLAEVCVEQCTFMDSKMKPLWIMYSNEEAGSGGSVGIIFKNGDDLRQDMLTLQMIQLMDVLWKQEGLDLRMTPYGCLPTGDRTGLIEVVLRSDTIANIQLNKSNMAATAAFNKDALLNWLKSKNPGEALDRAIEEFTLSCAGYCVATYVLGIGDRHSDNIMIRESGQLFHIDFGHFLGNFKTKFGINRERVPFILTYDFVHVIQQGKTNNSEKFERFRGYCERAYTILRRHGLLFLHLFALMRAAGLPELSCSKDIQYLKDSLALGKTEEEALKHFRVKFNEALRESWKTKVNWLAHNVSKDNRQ
# Chain of PI3Kδ (P27986 whole entry partner): as the sequence (P27986 whole entry partner) above
smiles,measurement,setting,value
COc1ncc(-c2ccc3ncc(OCCN(C)C)c(=O)n3c2)cc1NS(=O)(=O)c1ccc(F)cc1Cl [Compound 1],IC50,[1],> 200 nM
same,IC50,[2],9.9 ± 2.7 nM
same,IC50,[3],0.5 ± 0.1 nM
same,IC50,[4],7 ± 0.9 nM
same,IC50,[5],≤ 50 nM
